Residues, ends and D or L forms follow the SMILES beside them. *: point of attachment. Palmitoyl = CCCCCCCCCCCCCCCC(=O)*
How the values were obtained:
[1] = system: TRPV6 K484A; assay: NFAT screen, TRPV6 K484A; format: cell-based, human; details: HEK293 cells; 5 μM cis-22a, 2 h, vs DMSO
Description: (§1) N-terminally TagRFP-labeled human TRPV6 (725 aa) was kindly provided by R. Bhardwaj and M. Hediger (University of Bern, Bern, Switzerland). This variant is translated from the first ATG codon and thus deviates from the non-ATG-initiated protein which is expressed in vivo (accession number NM_018646.6) by lacking 40 amino acids of the very N-terminus. For N-terminal labeling with EYFP, TRPV6 was cloned into pEYFP-C1 (Clontech) via EcoRI and SacII restriction sites. […]
(§2) After incubation, cover slips were carefully rinsed with phenol red-free DMEM supplemented with the compound and dosage corresponding to the previous incubation, which was then also present during imaging. […] Subcellular NFAT localization of TRPV6 expressing cells was again monitored on an Axiovert 135 inverted microscope (Zeiss, Oberkochen, Germany), as described in more detail before. […] Images were analyzed using Matlab2018a, differentiating between three cell populations based on the ratio of CFP emission intensity originating from the nucleus and the cytosol, similar to Schober et al. (2019).

[2] = system: TRPV6 W593A; assay: NFAT screen, TRPV6 W593A; format: cell-based, human; details: HEK293 cells; 5 μM cis-22a, 2 h
Description: as §1, §2

[3] = system: TRPV6 W583A; assay: NFAT screen, TRPV6 W583A; format: cell-based, human; details: HEK293 cells; 5 μM cis-22a, 2 h, vs DMSO; analysable cells hardly present
Description: as §1, §2

[4] = system: TRPV6 R589A; assay: NFAT screen, TRPV6 R589A; format: cell-based, human; details: HEK293 cells; 5 μM cis-22a, 2 h; same for solvent control
Description: as §1, §2

[5] = system: TRPV6 I575A; set-up: method as in PMID 33246965; details: HEK293 cells; 0.1 μM and 10 μM cis-22a; Figure 5B; ref [47]; cited from earlier work
[6] = system: TRPV6 R470A W583F; set-up: method as in PMID 33246965; details: ref [47], cited from earlier work
[7] = system: TRPV6 R492A; assay: NFAT screen, TRPV6 R492A; format: cell-based, human; details: HEK293 cells; 5 μM cis-22a, 2 h; nuclear NFAT already reduced without cis-22a
Description: as §1, §2

[8] = system: TRPV6 G488R; assay: Fura-2 Ca2+ imaging, TRPV6 G488R; format: cell-based, human; details: HEK293 cells; 20 μM pal-PIP2 peptide; 2 mM Ca2+; Figure 2A
[9] = system: TRPV6 K484A; assay: Whole-cell patch clamp, TRPV6 K484A; format: cell-based, human; details: HEK293 cells; 10 μM pal-PIP2 peptide; p < 0.05; Figure 4D
From the text: N-terminally TagRFP-labeled human TRPV6 (725 aa) was kindly provided by R. Bhardwaj and M. Hediger (University of Bern, Bern, Switzerland). This variant is translated from the first ATG codon and thus deviates from the non-ATG-initiated protein which is expressed in vivo (accession number NM_018646.6) by lacking 40 amino acids of the very N-terminus. For N-terminal labeling with EYFP, TRPV6 was cloned into pEYFP-C1 (Clontech) via EcoRI and SacII restriction sites. Mutations (F468A, R470A, F472A, K484A/Q, G488R, R492A/Q, I575A, G579A, D580A/K, H582A, W583A/F, H587A, R589A, W593A, R632A/Q, R470A, W583F) were introduced using the QuickChange XL site-directed mutagenesis kit (Stratagene, San Diego, CA, USA) and Pfu DNA Polymerase (Promega, Madison, WI, USA). pTagRFP-hTRPV6 I575A was kindly provided by the lab of M. Hediger (University of Bern, Bern, Switzerland). Forward and reverse primers for site-directed mutagenesis were synthesized by Eurofins genomics GmbH (Wien, Vienna, Austria). Intactness of the constructs in terms of sequence was confirmed by sequencing (Microsynth Austria GmbH, Wien, Vienna, Austria; Eurofins genomics GmbH, Wien, Vienna, Austria). […]
Electrophysiological experiments were performed at 20 °C to 24 °C in whole-cell recording configurations of the patch clamp technique. […] The liquid junction potential was determined as 12 mV; the voltages were not adjusted. […]

Row | Compound | reduction of nuclear NFAT localization [1] | reduction in nuclear NFAT [2] | change of nuclear NFAT localization [3] | nuclear targeting of NFAT [4] | response to cis-22a vs TRPV6 WT [5] | inhibition by cis-22a in electrophysiological measurements ([6]; HEK293 cells, 0.1 and 10 μM cis-22a, n=6, Figure S6B) | resistance to cis-22a vs single mutants ([6]; R470A W583F, especially at the high blocker concentration) | inhibition by cis-22a (in words) ([6]; R470A W583F) | reduction of nuclear NFAT localization [7] | reduction of intracellular Ca2+ level [8] | sensitivity to peptide-based PIP2 sequestration vs WT [9]
1 | Cc1cccc(C2CCC(N3CCN(c4cccnc4)CC3)CC2)c1.O=C(O)C(F)(F)F (stereo not drawn) [cis-22a] | failed to significantly reduce NFAT nuclear localization | lower yet significant decrease in the proportion of cells showing NFAT in the nucleus | nuclear NFAT localization was higher for cis-22a-treated cells compared to the DMSO control | almost absent | significantly reduced response | just modest inhibition | considerably higher resistance | very weak inhibition | further significant reduction in nucleus-targeted NFAT | – | –
2 | CCCCCCCCCCCCCCCC(=O)N[C@@H](Cc1c[nH]cn1)C(=O)N[C@@H](CCCNC(=N)N)C(=O)N[C@@H](CCC(N)=O)C(=O)N[C@@H](CCCCN)C(=O)N[C@@H](Cc1c[nH]cn1)C(=O)N[C@@H](Cc1ccccc1)C(=O)N[C@@H](CCC(=O)O)C(=O)N[C@@H](CCCCN)C(=O)N[C@@H](CCCNC(=N)N)C(=O)N[C@@H](CCCNC(=N)N)C(N)=O [pal-PIP2 peptide] (Palmitoyl-HRQKHFEKRR-NH2) | – | – | – | – | – | – | – | – | – | ~ 2% | significantly reduced sensitivity

— paper PMC10779433, “Bidirectional Allosteric Coupling between PIP2 Binding and the Pore of the Oncochannel TRPV6” (International Journal of Molecular Sciences, 2024)
